Test results: ChEMBL document CHEMBL1201862, “PubChem BioAssay data set” (2004)
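Growth conditions: 96-well plates. Treatment: test compound, 48 hours, 5 concentrations. Analysis: linear interpolation between bracketing concentrations; unreached endpoints set to highest concentration. The concentration for 50% growth inhibition is given as GI50.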 Activity calls are given as the source filed them. Cut-off read from the data, not from the text of the source: active = GI50 up to about 1.1 µM and inactive = higher.

Experiments:
Test in all cases: NCI anticancer screen, dose series, 48 h
[1] = system: HCC 2998
[2] = system: HCT-15
[3] = system: HL-60
[4] = system: IGROV-1
[5] = system: KM12
[6] = system: LOX IMVI
[7] = system: MOLT-4
[8] = system: Malme-3M
[9] = system: NCI-H23
[10] = system: SF-539
[11] = system: SN12C
[12] = system: SNB-19
[13] = system: U-251
[14] = system: UACC-257
[15] = system: UO-31
[16] = system: CAKI-1

Compound | GI50 [1] | GI50 [2] [µM] | GI50 [3] | GI50 [4] | GI50 [5] | GI50 [6] | GI50 [7] | GI50 [8] | GI50 [9] | GI50 [10] | GI50 [11] | GI50 [12] | GI50 [13] | GI50 [14] | GI50 [15] | GI50 [16]
N#CC1C2CCC3(CC2CCN1C(=O)c1ccccc1)OCCO3 (centres undefined) | > 100 µM (inactive) | > 100 | > 100 µM (inactive) | > 100 µM (inactive) | > 100 µM (inactive) | > 100 µM (inactive) | > 100 µM (inactive) | > 100 µM (inactive) | > 100 µM (inactive) | > 100 µM (inactive) | > 100 µM (inactive) | > 100 µM (inactive) | > 100 µM (inactive) | > 100 µM (inactive) | > 100 µM (inactive) | –
C=C1Cc2cc(OC)c(OC)c(OC)c2-c2ccc(SC)c(=O)cc21 | < 0.01 µM (active) | < 0.01 | < 0.01 µM (active) | < 0.0424 µM (active) | < 0.01 µM (active) | < 0.01 µM (active) | < 0.01 µM (active) | < 0.01 µM (active) | < 0.01 µM (active) | < 0.01 µM (active) | < 0.01 µM (active) | – | < 0.01 µM (active) | 0.361 µM (active) | – | –
N#CC(NNC(=O)Cc1ccccc1)c1ccc([N+](=O)[O-])cc1 (centres undefined) | – | > 100 | > 100 µM (inactive) | > 100 µM (inactive) | > 100 µM (inactive) | > 100 µM (inactive) | > 100 µM (inactive) | > 100 µM (inactive) | > 100 µM (inactive) | > 100 µM (inactive) | > 100 µM (inactive) | – | > 100 µM (inactive) | > 100 µM (inactive) | > 100 µM (inactive) | –
N/N=C1\C(=O)N(Cc2ccccc2)C(=O)C1C(=O)NCc1ccccc1 (centres undefined) | > 100 µM (inactive) | > 100 | > 100 µM (inactive) | > 100 µM (inactive) | > 100 µM (inactive) | – | > 100 µM (inactive) | > 100 µM (inactive) | > 100 µM (inactive) | > 100 µM (inactive) | > 100 µM (inactive) | > 100 µM (inactive) | > 100 µM (inactive) | > 100 µM (inactive) | > 100 µM (inactive) | –
CC1=C(C(=O)NCc2ccccc2)C(c2ccc([N+](=O)[O-])cc2)C(C(=O)NCc2ccccc2)=C(C)N1 | 39.8 µM (inactive) | 45.4 | 21.2 µM (inactive) | 56.5 µM (inactive) | 34.7 µM (inactive) | 18.2 µM (inactive) | – | 67.5 µM (inactive) | 39.7 µM (inactive) | 66.4 µM (inactive) | 76 µM (inactive) | 65.2 µM (inactive) | 40.3 µM (inactive) | 38.6 µM (inactive) | 20.6 µM (inactive) | 26.7 µM (inactive)
CC(C)(C)C(=O)O[C@@H]1COC2C(O)COC21 (some centres undefined) | > 100 µM (inactive) | – | > 100 µM (inactive) | > 100 µM (inactive) | > 100 µM (inactive) | > 100 µM (inactive) | 19.7 µM (inactive) | > 100 µM (inactive) | > 100 µM (inactive) | > 100 µM (inactive) | > 100 µM (inactive) | > 100 µM (inactive) | > 100 µM (inactive) | > 100 µM (inactive) | > 100 µM (inactive) | > 100 µM (inactive)
O=[N+]([O-])c1cccc(C2SCc3nc4ccccc4n32)c1 (centres undefined) | – | – | 54.3 µM (inactive) | 33 µM (inactive) | > 100 µM (inactive) | 88.3 µM (inactive) | 59.4 µM (inactive) | 54.1 µM (inactive) | 64.4 µM (inactive) | > 100 µM (inactive) | 97.3 µM (inactive) | > 100 µM (inactive) | > 100 µM (inactive) | 39.3 µM (inactive) | 31.6 µM (inactive) | 21.8 µM (inactive)
CC1=CC(=O)NP(=O)(Oc2ccc(Cl)cc2)N1 (centres undefined) | – | > 100 | 55.6 µM (inactive) | > 100 µM (inactive) | > 100 µM (inactive) | > 100 µM (inactive) | > 100 µM (inactive) | > 100 µM (inactive) | > 100 µM (inactive) | > 100 µM (inactive) | > 100 µM (inactive) | > 100 µM (inactive) | > 100 µM (inactive) | > 100 µM (inactive) | > 100 µM (inactive) | > 100 µM (inactive)
C/C(=N\N(c1ccccc1)c1ccccc1)c1c(O)cc(C)oc1=O | > 100 µM (inactive) | 71.3 | > 10 µM (inactive) | – | > 100 µM (inactive) | > 100 µM (inactive) | 54.2 µM (inactive) | > 100 µM (inactive) | 40.1 µM (inactive) | 67.8 µM (inactive) | > 100 µM (inactive) | > 100 µM (inactive) | 22.4 µM (inactive) | 47.8 µM (inactive) | 25.7 µM (inactive) | 90.2 µM (inactive)
O=C1C(c2ccccc2)=C(c2ccccc2)[C@H](c2ccccc2)[C@]1(Cc1nnn(-c2ccc([N+](=O)[O-])cc2)c1N1CCOCC1)c1ccccc1 | > 37.5 µM (inactive) | > 37.5 | > 37.5 µM (inactive) | > 37.5 µM (inactive) | – | 24.5 µM (inactive) | 12.1 µM (inactive) | – | > 37.5 µM (inactive) | > 37.5 µM (inactive) | > 37.5 µM (inactive) | 35.9 µM (inactive) | > 37.5 µM (inactive) | > 37.5 µM (inactive) | – | > 37.5 µM (inactive)
N#CCCc1nc2ccc(Br)cc2c(=O)n1CCO | > 100 µM (inactive) | > 100 | > 100 µM (inactive) | > 100 µM (inactive) | > 100 µM (inactive) | > 100 µM (inactive) | > 100 µM (inactive) | > 100 µM (inactive) | > 100 µM (inactive) | > 100 µM (inactive) | > 100 µM (inactive) | – | – | > 100 µM (inactive) | > 100 µM (inactive) | > 100 µM (inactive)
Cc1cccc(CC(C)(C)C)c1NC(=O)C(=O)C(C(=O)c1ccc2ccccc2c1)C1OC(=O)c2ccccc21 (centres undefined) | 12.1 µM (inactive) | 15.3 | – | 16.7 µM (inactive) | 14.5 µM (inactive) | 11.5 µM (inactive) | – | 10.8 µM (inactive) | 6.35 µM (inactive) | 2.95 µM (inactive) | 15.8 µM (inactive) | 10.6 µM (inactive) | 4.79 µM (inactive) | 12 µM (inactive) | 16 µM (inactive) | 19.2 µM (inactive)
CC(C)C(/C=C/c1ccccc1)=N\NC(=O)N/N=C(/C=C/c1ccccc1)C(C)C | 16 µM (inactive) | 20.7 | 15.2 µM (inactive) | 39.1 µM (inactive) | 36.3 µM (inactive) | 32.4 µM (inactive) | 16.4 µM (inactive) | – | 53.7 µM (inactive) | 31.1 µM (inactive) | 17.3 µM (inactive) | 37.7 µM (inactive) | 32.3 µM (inactive) | 44 µM (inactive) | 14.7 µM (inactive) | 6.98 µM (inactive)
O=C(CN(Cc1ccccc1)Cc1ccccc1)N1CCc2c([nH]c3ccccc23)C1c1cccnc1 (centres undefined) | 13.2 µM (inactive) | 5.64 | 1.71 µM (inactive) | 29.7 µM (inactive) | 4.14 µM (inactive) | 7.73 µM (inactive) | 2.26 µM (inactive) | – | 5.41 µM (inactive) | 12.2 µM (inactive) | 2.71 µM (inactive) | 19.5 µM (inactive) | 6.37 µM (inactive) | 13.2 µM (inactive) | 2.63 µM (inactive) | 4.85 µM (inactive)
NC(=O)NC1C(C(N)=O)N(Cc2ccccc2)C(=O)N1Cc1ccccc1 (centres undefined) | > 100 µM (inactive) | > 100 | > 100 µM (inactive) | > 100 µM (inactive) | > 100 µM (inactive) | > 100 µM (inactive) | > 100 µM (inactive) | > 100 µM (inactive) | > 100 µM (inactive) | > 100 µM (inactive) | – | > 100 µM (inactive) | > 100 µM (inactive) | > 100 µM (inactive) | > 100 µM (inactive) | > 100 µM (inactive)
Cc1cccc(C(=O)O)c1C(=O)c1cccc2ccccc12 | > 100 µM (inactive) | 37.7 | – | > 100 µM (inactive) | > 100 µM (inactive) | > 100 µM (inactive) | 33.1 µM (inactive) | > 100 µM (inactive) | > 100 µM (inactive) | – | > 100 µM (inactive) | > 100 µM (inactive) | > 100 µM (inactive) | > 100 µM (inactive) | > 100 µM (inactive) | > 100 µM (inactive)
COc1cccc(-c2cc(O)c3cc(OC)c(OC)cc3n2)c1 | 87.1 µM (inactive) | 52.6 | 33.1 µM (inactive) | 89.3 µM (inactive) | 24.2 µM (inactive) | 64.7 µM (inactive) | 40.6 µM (inactive) | 35.7 µM (inactive) | 41.1 µM (inactive) | 26.4 µM (inactive) | 68.7 µM (inactive) | 58.2 µM (inactive) | 60.5 µM (inactive) | 28.9 µM (inactive) | 41.6 µM (inactive) | –
CC(Oc1ccc(OCC2CCCCC2)cc1)C(=O)OCC(=O)c1ccc(-c2ccccc2)cc1 (centres undefined) | > 100 µM (inactive) | > 100 | > 100 µM (inactive) | > 100 µM (inactive) | > 100 µM (inactive) | > 100 µM (inactive) | > 100 µM (inactive) | > 100 µM (inactive) | > 100 µM (inactive) | > 100 µM (inactive) | > 100 µM (inactive) | > 100 µM (inactive) | > 100 µM (inactive) | > 100 µM (inactive) | > 100 µM (inactive) | –
COCC(=O)CP(=O)(OC)OC | – | > 100 | > 100 µM (inactive) | > 100 µM (inactive) | > 100 µM (inactive) | > 100 µM (inactive) | > 100 µM (inactive) | > 100 µM (inactive) | > 100 µM (inactive) | > 100 µM (inactive) | > 100 µM (inactive) | > 100 µM (inactive) | > 100 µM (inactive) | > 100 µM (inactive) | > 100 µM (inactive) | > 100 µM (inactive)
